The test system of data set [1] is Musca domestica, resistant. The experiment in a line: Aerosol Test (knock-down effect on resistant flies, 30 m^3 room). In kind it is in vivo. From the text:
In each experiment, 3 wire cages each containing 20 resistant male Musca domestica are suspended in rooms of volume 30 m^3. The room is then sprayed using spray cans containing active compounds I, II, III and IV or active compound mixtures I+IV; II+IV; V+VI; V+VI+I and V+VI+II according to formulation Examples 1-9.
The amount of spray applied per spray can is 12.4 g. After spraying, the rooms are sealed and the action of the spray mist on the flies observed continuously through windows. The number of minutes after which 50 and 95% of the animals had fallen onto their backs (knock-down effect) is recorded. After a tesst duration of 1 hour, the percentage of knocked-downanimals is subsequently determined. The table below contains the values determined.

For data set [2], the system named is insects. The experiment in a line: insecticidal / biological action (general statements). In kind it is in vivo.
For data set [3], the system named is rats. To be noted: cited from earlier work.
The subject of data set [4] is Aedes aegypti. Put plainly: Vapor test (knock-down action on mosquitoes, electroevaporator ovens). In kind it is in vivo. As to conditions: compound II 10 mg. Here is the method: Small cellulose tablets containing active compound according to formulation examples Nos. 9 and 10 are placed on the hotplate of small electroevaporator ovens, producing temperatures of 130° and 160° C. The instruments ae connected to the mains via a socket and heated up in living rooms of equal size and equally equipped.
During the experiment, one window in the rooms remained open to the outside in the tilted position. Immediately after switching on the ovens, 2 wire baskets each containing 20 mosquitoes of the Aedes aegypti species, 3-4 days old, were hung in each room. The knock-down action on the mosquitoes was checked half or one hour later. After the oven had burnt for a longer period, fresh mosquitoes were again introduced in the same way into the rooms at certain times, and the activity was again tested after half or one hour. The temperature of the heating oven, the amounts of reactive compounds, the heating duration, the test time and the knockdown effect can be seen from the table below.
(%Knock-down: percentage of mosquitoes which have fallen onto their backs).
In the present test, active compounds I (according to the invention) and II ((-)1R-trans-isomer of fenfluthrin) were employed.

A short description of data set [5]: oral toxicity to mammals (LD50, rats). In kind it is in vivo. To be noted: rat, in vivo; male rats; oral.
In data set [6] the test system is rats. The experiment in a line: oral toxicity to mammals (LD50, rats). In kind it is in vivo.
Data set [7] concerns flies. To be noted: versus mixture of equal parts of the 2,3,5,6-tetrafluorobenzyl and 3,5,6-trifluorobenzyl ester; cited from earlier work.
The subject of data set [8] is insects. To be noted: prior art, ester alone; cited from earlier work.
[9] abbreviates: compound I 10 mg, oven 130 °C, animals introduced after 0 h heating, residence 1 h.
[10] abbreviates: compound I 10 mg, oven 130 °C, animals introduced after 8 h heating, residence 1 h.
The mark [11] stands for this setting: compound I 10 mg, oven 130 °C, animals introduced after 26 h heating, residence 1 h.
The mark [12] stands for this setting: compound I 10 mg, oven 130 °C, animals introduced after 50 h heating, residence 1 h.
The mark [13] stands for this setting: compound I 10 mg, oven 160 °C, animals introduced after 0 h heating, residence 1 h.
[14] abbreviates: compound I 10 mg, oven 160 °C, animals introduced after 8 h heating, residence 1 h.
Where [15] appears, read: compound I 10 mg, oven 160 °C, animals introduced after 26 h heating, residence 1 h.
Setting [16] is: compound I 20 mg, oven 130 °C, animals introduced after 0 h heating, residence 1 h.
Where [17] appears, read: compound I 20 mg, oven 130 °C, animals introduced after 8 h heating, residence 1 h.
Where [18] appears, read: compound I 20 mg, oven 130 °C, animals introduced after 26 h heating, residence 1 h.
[19] abbreviates: compound I 20 mg, oven 130 °C, animals introduced after 50 h heating, residence 1 h.
The mark [20] stands for this setting: compound I 20 mg, oven 160 °C, animals introduced after 0 h heating, residence 1 h.
Where [21] appears, read: compound I 20 mg, oven 160 °C, animals introduced after 8 h heating, residence 1 h.
Where [22] appears, read: compound I 20 mg, oven 160 °C, animals introduced after 28 h heating, residence 1 h.
The mark [23] stands for this setting: compound I 30 mg, oven 130 °C, animals introduced after 0 h heating, residence 0.5 h.
Setting [24] is: compound I 30 mg, oven 130 °C, animals introduced after 8 h heating, residence 0.5 h.
The mark [25] stands for this setting: compound I 30 mg, oven 130 °C, animals introduced after 26 h heating, residence 0.5 h.
Setting [26] is: compound I 30 mg, oven 130 °C, animals introduced after 50 h heating, residence 0.5 h.
Where [27] appears, read: compound I 30 mg, oven 160 °C, animals introduced after 0 h heating, residence 0.5 h.
Where [28] appears, read: compound I 30 mg, oven 160 °C, animals introduced after 8 h heating, residence 0.5 h.
Where [29] appears, read: compound I 30 mg, oven 160 °C, animals introduced after 28 h heating, residence 0.5 h.
Setting [30] is: compound I 30 mg, oven 160 °C, animals introduced after 32 h heating, residence 0.5 h.

Like-named read-outs stand apart in the source and are kept apart here.

This is an account of results in US4889872A, “2,3,5,6-Tetrafluorobenzyl (+) 1r-trans-2,2-dimethyl-3-(2,2-dichlorovinyl)-cyclopropanecarboxylate” (priority 1987, dated 1989).

For orientation: LD50 means the dose at which mortality reaches 50%. Low readings indicate greater toxicity, high ones lower toxicity.

In the case of `CC1(C)C(C=C(Cl)Cl)C1C(=O)OCc1c(F)c(F)cc(F)c1F` (racemic) [Active compound III, tetrafluorobenzyl cis/trans-2,2-dimethyl-3-(2,2-dichlorovinyl)-cyclopropanecarboxylate], in data set [1] (5 mg/30 m^3), the “50% knock-down after minutes” value was 38 min and the “95% knock-down after minutes” value came to 52 min. For the same molecule, the “% knock-down after 1 hour” value in data set [1] (5 mg/30 m^3, 1 hour) is on record as 97%. The biological action result in data set [2] (compared with tetrafluorobenzyl (+)1R-trans ester according to the invention) is “lower biological action”. In addition, the “oral LD50” value in data set [3] (male rats) was 10 to 25 mg/kg.

As for `CC1(C)[C@H](C=C(Cl)Cl)[C@H]1C(=O)OCc1c(F)c(F)cc(F)c1F` [Active compound I, 2,3,5,6-Tetrafluoro-benzyl (+)1R-trans-2,2-dimethyl-3-(2,2-dichlorovinyl)-cyclopropanecarboxylate], the “50% knock-down after minutes” value was found to be 22 min in data set [1] (5 mg/30 m^3) and 18 min in data set [1] (7.5 mg/30 m^3). The “95% knock-down after minutes” value in data set [1] (5 mg/30 m^3) is 47 min; in data set [1] (7.5 mg/30 m^3) it was 33 min. Also, the “% knock-down after 1 hour” value in data set [1] (5 mg/30 m^3, 1 hour) worked out at 96%; in data set [1] (7.5 mg/30 m^3, 1 hour), 99%. The “% knock-down” value came out at 100% in data set [4] (setting [9]); 100% in data set [4] (setting [10]); 100% in data set [4] (setting [11]); 85% in data set [4] (setting [12]); 100% in data set [4] (setting [13]); 100% in data set [4] (setting [14]). Besides, the “% knock-down” value is 55% in data set [4] (setting [15]); 100% in data set [4] (setting [16]); 100% in data set [4] (setting [17]); 100% in data set [4] (setting [18]); 100% in data set [4] (setting [19]); 100% in data set [4] (setting [20]). Moreover, the “% knock-down” value amounted to 100% in data set [4] (setting [21]); 100% in data set [4] (setting [22]); 97% in data set [4] (setting [23]); 100% in data set [4] (setting [24]); 100% in data set [4] (setting [25]); 92% in data set [4] (setting [26]). For the same molecule, the “% knock-down” value in data set [4] (setting [27]), in data set [4] (setting [28]), in data set [4] (setting [29]) and in data set [4] (setting [30]) was 100% in each case. This molecule showed a 50% lethal dose (LD50) in data set [5] above 5000 mg/kg. In addition, the therapeutic index result in data set [6] (gap between effective dose for the pest and toxicity to mammals) is “surprisingly favorable therapeutic index”. In addition, in data set [6] (ratio versus pentafluorobenzyl (-)1R-trans-2,2-dimethyl-3-(2,2-dichlorovinyl)-cyclopropanecarboxylate), the “toxicity to mammals lower than that of pentafluorobenzyl (-)1R-trans ester” value is reported as 50 times. Moreover, the “toxicity to mammals lower than that of tetrafluorobenzyl cis/trans ester” value in data set [6] (ratio versus tetrafluorobenzyl cis/trans-2,2-dimethyl-3-(2,2-dichlorovinyl)-cyclopropanecarboxylate) is reported as “more than 250 times”. In addition, the insecticidal action entry in data set [2] (compared to pentafluorobenzyl (-)1R-trans ester, at the same or an only slightly higher dosage) is “comparable insecticidal action”.

Turning to `CC1(C)[C@H](C=C(Cl)Cl)[C@H]1C(=O)OCc1c(F)c(F)c(F)c(F)c1F` [Active compound II, pentafluorobenzyl (-)1R-trans-2,2-dimethyl-3-(2,2-dichlorovinyl)-cyclopropanecarboxylate], the “50% knock-down after minutes” value in data set [1] (5 mg/30 m^3) is 19 min. For the same molecule, in data set [1] (5 mg/30 m^3), the “95% knock-down after minutes” value turned out to be 37 min. Moreover, in data set [1] (5 mg/30 m^3, 1 hour), the “% knock-down after 1 hour” value was found to be 99%. Moreover, the “% knock-down” value in data set [4] (setting [9]) was 100%; in data set [4] (setting [10]) it was 100%; in data set [4] (setting [11]), 100%; in data set [4] (setting [12]), 97%; in data set [4] (setting [13]), 100%; in data set [4] (setting [14]), 100%. In addition, the “% knock-down” value turned out to be 40% in data set [4] (setting [15]); 100% in data set [4] (setting [16]); 100% in data set [4] (setting [17]); 100% in data set [4] (setting [18]); 95% in data set [4] (setting [19]); 100% in data set [4] (setting [20]). For the same molecule, the “% knock-down” value in data set [4] (setting [21]) is 100%; in data set [4] (setting [22]), 92%; in data set [4] (setting [23]) it was 65%; in data set [4] (setting [24]), 100%; in data set [4] (setting [25]) it was 97%; in data set [4] (setting [26]), 75%. Moreover, the “% knock-down” value in data set [4] (setting [27]) came to 45%; in data set [4] (setting [28]), 100%; in data set [4] (setting [29]), 92%; in data set [4] (setting [30]), 47%. In data set [3] (rats), the “oral LD50” value was 90 to 105 mg/kg.

For `COP(=O)(OC)OC=C(Cl)Cl` [Active compound IV, dichlorvos], the “% knock-down after 1 hour” value in data set [1] (124 mg/30 m^3, 1 hour) was 22%.

Consider `CC1(C)C(C=C(Cl)Cl)C1C(=O)OCc1c(F)c(F)c(F)c(F)c1F` (stereo not shown) [pentafluorobenzyl ester], for which the “amount that killed flies in the same time” value in data set [7] is recorded as “only a fifteenth of it killed flies in the same time”.

As to `CC1(C)C(C=C(Cl)Cl)C1C(=O)OCc1c(F)c(F)cc(F)c1F` (stereo not shown) [tetrafluorobenzyl ester], the insecticidal action result in data set [8] is given as “good insecticidal action”.
